Experimental findings from PMC8899577, “Targeting the anti-apoptotic Bcl-2 family proteins: machine learning virtual screening and biological evaluation of new small molecules” (Theranostics, 2022) are described below.

A word on the Cmax: it is the peak of the concentration-time curve.

Read-outs that look alike come from different tables or passages of the source.

For data set [1], the system named is HL60 cells. Put plainly: Flow cytometry subG1 peak (PI staining), HL60. The class given is cell-based, Human. To be noted: 20 µM for 24 h. On the procedure: Flow cytometric analysis (BD Accuri™ C6, BD Biosciences) was performed to evaluate cell cycle distribution by propidium iodide (PI) staining, and cell viability by using the PI dye exclusion assay as previously reported.
Figure 5 Analysis of apoptosis induction by IS20 and IS21 in leukemia, melanoma and NSCLC cells. […] (A-F) Reported images are representative of two independent experiments with similar results. HSP72/73 or α-Tubulin are shown as loading and transferring control. (G) Flow cytometric quantification of cells in the subG1 peak of cell cycle distribution by propidium iodide staining in HL60 cell line treated with IS20 or IS21 (20 μM for 24 h) and in M14, H1299 and MDA-MB-231 cell lines treated with IS20 or IS21 (20 μM for 72 h). Data are reported as mean ± SD of three independent experiments. p-values were calculated between control (Ctrl) and treated cells, * p < 0.05. (H) Flow cytometric quantification of cells in the subG1 peak by propidium iodide staining in M14 and H1299 cell lines treated with IS20 or IS21 (20 μM, 72 h) in presence or absence of the pan caspase inhibitor z-VAD (50 μM). p-values were calculated between treated control (Ctrl) cells, # p < 0.01, ## p < 0.001 or between cells treated with IS20 or IS21 alone or in combination with z-VAD, * p < 0.05, ** p < 0.005. (G-H) Data are reported as mean of two (H) or three (G) experiments ± SD.

Data set [2] deals with HL60 cells. Put plainly: Western blot of LC3B-I/LC3B-II (autophagy), HL60. It counts as cell-based, Human. The settings on record: 20 µM for 24 h.
Data set [3] is described as follows: Pharmacokinetics in mouse plasma (LC-MS/MS). The class given is in vivo, C57/Bl6 mice. The settings on record: mice, intraperitoneal; for Tmax: read-out: time of maximum plasma concentration after injection. On the procedure: 184 In vivo experi ments. […]
186 30% PEG400 (Sigma-Al drich) and 60% NaCl. Mice were sacrificed starting from 15 min to 24 h
187 after injection. Blood samples were collected b y cardiac puncture, centri fuged at 3,000 g for 10 min
188 at 4 °C and the obtained plasma was stored at - 80 °C until the analysis performed b y liquid
189 chromatograph y tandem mass spectrometry (LC –MS/MS). Given that the two compounds were
190 singularl y administered to the animals for the pharmacokinetic studies, IS20 was used as internal
191 standard (IS) for IS21 and vice versa. Internal Standard Working Solutions (IS-WS) were prepared
192 by adding appropriate volumes of the stock solutions to 50 mL of 0.1% formic acid (Fluka, Milan,
193 Ital y) in methanol:acetonitrile (50:50, v/v, Sigma -Aldrich), in order to reach a final concentration of
194 50 ng/m L. The solutions were maintained at - 20°C.
195 LC-MS/MS Analysis. 40 µ L of mouse plasma were mixed with 160 µ L o f IS -WS. The mixture was
196 vortex mixed for 1 min and centrifuged at 12,000 g for 10 min at 4 °C. The supernatant was
197 collected and 8 µL were injected into the LC–MS/MS system. The HP LC equipment consists of a
198 Series 200 Micro-LC Pump and a Series 200 autosampler from Perkin Elm er (Norwalk, CT, USA).
199 A triple quadrupole mass spectrometer, AB-Sciex API2000 (Toronto, ON, Canada) was used for
200 detection. The anal yt es were anal yzed using a C18 phase Kinetex column (10 cm x 2.1 mm ID) fro m
201 Phenomenex (Torran ce, CA, USA) packed with core–shell particles of […]. The mobile phases
202 were (A) acetonitrile an d (B) water, both containing 0.1% formic acid, at a flow rate of 0.25 mL /
203 min and were entirel y transferred into the mass spectrometer source. Gradient elution was as
204 follows: increase of the organic phase from 60 to 80% in 0.8 min, then to 90% in the following 1.2
205 min and linearly to 100% in 2 min. Finally, after 3.9 min of 100% , the column was led to the
206 original conditions in 2.5 min to enable equilibration of the column.
207 Both anal ytes were detected in positive ionization with a capillar y voltage of 5500 V, nebulizer gas
208 (air) at 40 psi, turbo gas (nitrogen) at 70 psi and 400 °C. The other ion source parameters were set
209 as follows: curtain gas (CUR) 18 psi; collision gas (CAD) 6 psi; declustering potential (DP) 80 V,
210 entrance potential (EP) 1 2 V.
211 The quantitative data were acquired using Multi Reaction Monitoring (MRM) acquisition mode.
212 Two MRM transitions (precursor ion>fragment ion) were selected for the analytes. For IS20
214 eV while collision cell exit potential (CXP) was at 19 and 8 V for the two transitions, respectively.
216 and 51 eV while collision cell exit potential (CXP) was at 21 and 6 V for the two transitions,
218 The anal ytical method was validated according to FDA guidelines for bioanalytical method
219 validation. Linearity, recover y, matrix effect, precision, accurac y, limits of detection (LODs) and
220 lower limits of quantification (LLOQs) were evaluated.
221 Calibration standard solutions were prepared in blank plasma b y spiking 25 µL of a standard
222 mixture at appropriate concentration to 40 µL of plasma and by adding 140 µL of methanol:
223 acetonitrile (50:50, v/v). Calibrators were then treated similarly to the animal samples. The
224 calibration range was 5 to 7500 ng/ mL and the calibrators were prepared at nine level of
225 concentration. Precision, recover y and accurac y w ere ev aluated at three lev el of concentrations (25,
226 […]) and resulted within the acceptable limits.
227 The limit of detection (LOD) was defined as the lowest concentration with a signal- to-noise (S/N)
228 ratio greater than 3. The limit of quantification (LOQ) was defined as the concentration at which
229 both precision (RSD%) and accurac y were less than 20%. LOQ resulted to be 2 ng/ mL while LOD
231 The validated method was then successfully applied in measuring IS20 and IS21 following drug […]

Where [4] appears, read: C57/Bl6, mouse, plasma, ip, 100 mg/kg.

`CCCCCOc1ccc(C2/C(=C(\O)c3ccc4c(c3)CC(C)O4)C(=O)C(=O)N2c2nnc(SCc3ccc(Cl)cc3)s2)cc1OCC` (centres unmarked) [IS21]: the “subG1 peak of cell cycle distribution, HL60” value in data set [1] is “presence of subG1 peak”. The “ratio of LC3B-II on LC3B-I, HL60” value in data set [2] is on record as “Increased ratio”. Moreover, the peak concentration (Cmax) in data set [3] (C57/Bl6, mouse, ip, 50 mg/kg, plasma) was 4.1 µM. Further, the AUC in data set [3] (C57/Bl6, mouse, ip, 50 mg/kg, plasma, read-out: mean AUCtot) was found to be 40.9 µM·h. Besides, the half-life in data set [3] (C57/Bl6, mouse, ip, 50 mg/kg, plasma, read-out: mean t½ (converted)) is 11 h. Further, the Tmax turned out to be 2 h in data set [3] (C57/Bl6, mouse, plasma, ip, 50 mg/kg) and 4 h in data set [3] (setting [4]). This compound also showed a mean total clearance in data set [3] (50 mg/kg) of 26.3 mL/min/kg.

Turning to `CCCCOc1ccc(C2/C(=C(\O)c3ccc4c(c3)CC(C)O4)C(=O)C(=O)N2c2nnc(SCc3ccc(Cl)cc3)s2)cc1OCC` (centres unmarked) [IS20], the “subG1 peak of cell cycle distribution, HL60” value in data set [1] is reported as “presence of subG1 peak”. Further, in data set [2], the “ratio of LC3B-II on LC3B-I, HL60” value is “Increased ratio”. Also, the Tmax in data set [3] (setting [4]) amounted to 16 h.
